Measured values published in patent US20200368260A1, “USE OF BENZOPYRAN COMPOUND IN PREPARATION OF PRODUCT FOR REGULATING LIPID METABOLISM AND COMPOSITION OF THE SAME” (priority 2019, published 2020).

Tests used:
Format in all cases: cell-based, human
high-fat HepG2 cells = test: Cellular alanine aminotransferase (ALT) content, ALT kit; conditions: for level of ALT in a high fat cell: FIGS. 4C, 5C; for level of ALT, compared with control group and low dose group: medium and high doses
Protocol: 2. The culture, model establishment and experimental steps of the cells were operated according to the above steps. The anthocyanin compound mother liquor was diluted to 0, 0.1, 1, 10, 50, and 100 μM to treat the high-fat HepG2 cells, respectively.
3. The culture solution was pipetted off, gently washed with PBS for 3 times, and added with trypsin to digest the cells for 1 min The cell suspension was pipetted into a 1.5 mL sterile EP tube, centrifuged at 1000 rpm for 10 minutes, the supernatant was discarded, the pellet was added with an appropriate amount of PBS, ultrasonically crushed under the condition of an ice-water bath, and the prepared homogenate was not centrifuged and was ready for determination.
The intracellular alanine aminotransferase (ALT) content was determined according to the operating instructions of an ALT kit.

APG7 = test: Western blotting, protein expression in oleic acid induced HepG2 cells
Protocol: (§1) The culture, model establishment and drug treatment manners of the cells were operated according to 1.2.3. After completion, cells were collected, cytoplasmic proteins were extracted, and protein electrophoresis was conducted after quantification. Particularly the following methods were used: When the cell confluence reached 70%, 0.5 mM oleic acid was added to treat the cells for 24 h. After completion, the cells were collected and the cytoplasmic protein was extracted, and the protein electrophoresis was conducted after quantification. The electrophoresis method was as follows: After cell culture was completed, the culture plate was taken out, the culture medium in the well was discarded, the pellet was washed twice with PBS, placed onto an ice bath, and added with 100 μL of a protein lysis buffer (RIPA) (PMSF was added into the cell lysis buffer at 1:1000 within few minutes before the use, with a final concentration of 1 mM) per well. After the cells were lysed for about […], the cells were scraped off with a cell scraper, pipetted into a 1.5 mL centrifuge tube (which could be crushed with an ultrasonic cell disruptor for 3-5 times), then centrifuged at 12,000 rpm under 4° C. for 15-20 mM. The supernatant was taken and transferred into a new centrifuge tube for protein quantification or storage at −80° C. Theprotein content was determined by a BCA method, and the operation method was carried out according to the instructions of the kit. After the protein concentration was measured, the protein sample was added with a 5× loading buffer and mixed uniformly at 1:4, then subjected to water bath at 100° C. for […] (entangling with a sealing film to prevent bouncing off), and stored at 4° C. The specific operation method of protein electrophoresis was in accordance with the relevant references. Since each of the molecular weight of the target proteins was within 10-80 KDa except for FASN (the separation gel was prepared according to the following table), the separation gel concentration was selected to be 10%, and the concentration of the FASN protein separation gel was selected to be 6%. A spacer gel was formulated according to the following table, and sample loading was conducted. After completion, electrophoresis should be conducted as soon as possible, where concentration was conducted at 80 v for 30 min, and then electrophoresis was conducted at 120 v until the front edge ran to the lower edge of the separation gel, and the electrophoresis was stopped. 3. Transferring The PVDF membrane was immersed in methanol for 1 min in advance and then soaked with a 1× transfer solution for 10 min. the gel was removed, the excess gel was cut off from top and bottom and left and right, and then the gel was assembled in the order of filter paper-gel-membrane-filter paper from a blackboard to a whiteboard, the bubbles were removed from therebetween, and the assembly was clamped by a clip, and placed in a transfer slot with the black side to black side, and white side to white side. After the completion of the transfer, the PVDF membrane was blocked with a TB ST room-temperature shaker containing 5% skim milk powder for 1 hour. The primary antibody was diluted with TBST containing 5% BSA or 5% skim milk powder (see the antibody instructions for specific dilution multiple). After the end of blocking, the PVDF membrane was incubated with the well-diluted primary antibody overnight at 4° C.

APGSL = test: as above; conditions: high dose group
Protocol: as §1

## COc1cc(-c2[o+]c3cc(O)cc(O)c3cc2O[C@@H]2O[C@H](CO)[C@@H](O)[C@H](O)[C@H]2O)cc(OC)c1O [malvidin-3-O-β-D glucoside]
high-fat HepG2 cells
  level of ALT in a high fat cell: reduce
  level of ALT, compared with control group and low dose group: very significant reduction
APG7; high dose group
  protein expression of APG7: inhibition trend
APG7; low doses
  protein expression of APG7: significant effect
APGSL
  protein expression of APGSL: inhibition trend

## COc1cc(-c2[o+]c3cc(O)cc(O)c3cc2O[C@@H]2O[C@H](CO)[C@@H](O)[C@H](O)[C@H]2O)cc(O)c1O [petunidin-3-O-β-D glucoside]
high-fat HepG2 cells
  level of ALT in a high fat cell: reduce
  level of ALT, compared with control group and low dose group: very significant reduction
APG7; high dose group
  protein expression of APG7: inhibition trend
APG7; low doses
  protein expression of APG7: significant effect
APGSL
  protein expression of APGSL: inhibition trend
